How the values were obtained:
Experiment in all cases: biochemical
Design in all cases: Safety pharmacology off-target panel at Eurofins, radioligand binding with agonist or antagonist radioligand (Supplementary Table 2)
A1 (h) = biological target: T1, A1 (h) (Homo sapiens, UniProt P30542); settings: antagonist radioligand
T1 construct: gene ADORA1
Protocol: (§1) Wide-range phosphatase, kinase and preclinical safety pharmacology off-target activity screens were conducted at Eurofins (Extended Data Table 5 and Supplementary Tables 1 and 2). A small phosphatase panel was developed at AbbVie to assess IC50 values on select phosphatases. The following enzymes used in the phosphatase selectivity panel were purchased from Eurofins: PTPN1 (PTP1B; 14–621), PTPN2 (TC-PTP; 14–646), PTPN9 (14–592), SHP1 (14–591) and SHP2 (14–622). The catalytic activity of the phosphatase was monitored using the small-molecule substrate DiFMUP (ThermoFisher) in a fluorescence assay format. In brief, the phosphatase reactions were performed at room temperature in the following assay buffer: 50 mM HEPES, pH 7.2, 100 mM NaCl, 1 mM EDTA, 0.005% Tween-20 and 5 mM TCEP. Each phosphatase was incubated with increasing concentrations of AC484 for 5 min, after which the substrate DiFMUP was added and incubated at 25 °C for 30 min. The final concentration of the enzyme and substrate was maintained at 0.5 nM and 5 μM, respectively, in all the assays. The reaction was then quenched by the addition of a 100 μM solution of bpV(Phen) (Enzo Life Sciences). The fluorescence signal was monitored using an Envision microplate reader (Perkin-Elmer) using excitation and emission wavelengths of 340 nm and 450 nm, respectively. The dose–response curves for the inhibitors were analysed using normalized IC50 regression curve fitting with control-based normalization. Supplementary file 41586_2023_6575_MOESM4_ESM.xlsx: Supplementary Table 2 AC484 receptor selectivity screen.

5-HT transporter = biological target: T2, 5-HT transporter (Homo sapiens, UniProt P31645); settings: antagonist radioligand
T2 construct: gene SLC6A4
T2 sequence (P31645 whole entry): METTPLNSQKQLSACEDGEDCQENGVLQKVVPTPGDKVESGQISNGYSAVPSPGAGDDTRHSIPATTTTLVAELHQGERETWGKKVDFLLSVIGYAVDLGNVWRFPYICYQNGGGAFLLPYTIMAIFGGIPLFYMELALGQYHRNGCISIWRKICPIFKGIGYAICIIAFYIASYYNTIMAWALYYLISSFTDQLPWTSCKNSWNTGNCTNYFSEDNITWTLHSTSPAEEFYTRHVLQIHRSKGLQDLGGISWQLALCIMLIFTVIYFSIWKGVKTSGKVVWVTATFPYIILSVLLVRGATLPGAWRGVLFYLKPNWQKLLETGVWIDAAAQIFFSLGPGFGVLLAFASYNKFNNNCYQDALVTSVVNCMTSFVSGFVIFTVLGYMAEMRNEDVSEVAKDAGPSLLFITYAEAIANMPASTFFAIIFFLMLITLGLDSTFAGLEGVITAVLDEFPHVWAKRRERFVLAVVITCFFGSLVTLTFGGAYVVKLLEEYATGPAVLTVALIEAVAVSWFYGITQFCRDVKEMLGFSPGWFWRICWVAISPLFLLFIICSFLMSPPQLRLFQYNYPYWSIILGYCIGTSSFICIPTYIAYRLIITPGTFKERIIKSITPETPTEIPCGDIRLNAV
Protocol: as §1

Motilin = biological target: T3, Motilin (Homo sapiens, UniProt O43193); settings: agonist radioligand
T3 construct: gene MLNR
Protocol: as §1

a1A (h) = biological target: T4, a1A (h) (Homo sapiens, UniProt P35348); settings: antagonist radioligand
T4 construct: gene ADRA1A
T4 sequence (P35348 whole entry): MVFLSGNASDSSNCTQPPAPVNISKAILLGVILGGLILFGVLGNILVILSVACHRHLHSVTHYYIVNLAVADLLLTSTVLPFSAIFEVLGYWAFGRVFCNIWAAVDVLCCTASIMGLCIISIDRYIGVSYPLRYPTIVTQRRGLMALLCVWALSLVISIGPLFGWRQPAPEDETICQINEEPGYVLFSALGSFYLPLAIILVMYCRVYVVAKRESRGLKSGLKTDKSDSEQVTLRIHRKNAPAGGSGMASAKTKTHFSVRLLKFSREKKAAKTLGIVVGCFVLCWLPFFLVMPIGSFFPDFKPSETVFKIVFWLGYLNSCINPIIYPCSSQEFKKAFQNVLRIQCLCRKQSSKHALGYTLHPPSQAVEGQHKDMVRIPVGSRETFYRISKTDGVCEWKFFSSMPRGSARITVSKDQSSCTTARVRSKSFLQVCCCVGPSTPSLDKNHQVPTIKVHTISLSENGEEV
Protocol: as §1

m (MOP) = biological target: T5, m (MOP) (Homo sapiens, UniProt P35372); settings: agonist radioligand
T5 construct: gene OPRM1; MOP
Protocol: as §1

AR = AR (Homo sapiens, UniProt P10275); settings: agonist radioligand
AR, sequence (P10275 whole entry): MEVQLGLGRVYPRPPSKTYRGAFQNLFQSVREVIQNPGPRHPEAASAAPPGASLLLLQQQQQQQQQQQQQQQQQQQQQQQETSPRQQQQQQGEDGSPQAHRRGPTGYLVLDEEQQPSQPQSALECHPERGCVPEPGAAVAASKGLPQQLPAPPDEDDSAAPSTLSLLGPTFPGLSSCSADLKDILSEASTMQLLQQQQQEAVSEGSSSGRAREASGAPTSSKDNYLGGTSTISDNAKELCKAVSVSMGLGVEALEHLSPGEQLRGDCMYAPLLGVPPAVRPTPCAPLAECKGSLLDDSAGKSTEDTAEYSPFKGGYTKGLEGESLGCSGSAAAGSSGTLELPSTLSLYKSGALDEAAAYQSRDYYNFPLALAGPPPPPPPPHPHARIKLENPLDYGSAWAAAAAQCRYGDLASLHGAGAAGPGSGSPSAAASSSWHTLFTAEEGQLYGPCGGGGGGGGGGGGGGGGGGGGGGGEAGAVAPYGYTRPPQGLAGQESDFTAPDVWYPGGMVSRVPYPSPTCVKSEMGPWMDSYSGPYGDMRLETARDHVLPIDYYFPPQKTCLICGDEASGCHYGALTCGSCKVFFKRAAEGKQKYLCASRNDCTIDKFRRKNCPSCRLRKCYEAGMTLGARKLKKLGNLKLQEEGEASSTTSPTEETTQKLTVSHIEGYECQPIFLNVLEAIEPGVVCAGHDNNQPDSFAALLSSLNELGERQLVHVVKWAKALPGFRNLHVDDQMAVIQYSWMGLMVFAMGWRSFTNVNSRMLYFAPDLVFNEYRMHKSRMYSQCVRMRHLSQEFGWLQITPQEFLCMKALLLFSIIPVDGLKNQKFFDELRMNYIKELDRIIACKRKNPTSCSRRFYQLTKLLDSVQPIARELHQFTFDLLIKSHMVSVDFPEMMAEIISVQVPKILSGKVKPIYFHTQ
Protocol: as §1

V1a = biological target: T6, V1a (Homo sapiens, UniProt P37288); settings: agonist radioligand
T6 construct: gene AVPR1A
Protocol: as §1

Estrogen ER alpha = biological target: T7, Estrogen ER alpha (Homo sapiens, UniProt P03372); settings: agonist radioligand
T7 construct: gene ESR1
T7 sequence (P03372 whole entry): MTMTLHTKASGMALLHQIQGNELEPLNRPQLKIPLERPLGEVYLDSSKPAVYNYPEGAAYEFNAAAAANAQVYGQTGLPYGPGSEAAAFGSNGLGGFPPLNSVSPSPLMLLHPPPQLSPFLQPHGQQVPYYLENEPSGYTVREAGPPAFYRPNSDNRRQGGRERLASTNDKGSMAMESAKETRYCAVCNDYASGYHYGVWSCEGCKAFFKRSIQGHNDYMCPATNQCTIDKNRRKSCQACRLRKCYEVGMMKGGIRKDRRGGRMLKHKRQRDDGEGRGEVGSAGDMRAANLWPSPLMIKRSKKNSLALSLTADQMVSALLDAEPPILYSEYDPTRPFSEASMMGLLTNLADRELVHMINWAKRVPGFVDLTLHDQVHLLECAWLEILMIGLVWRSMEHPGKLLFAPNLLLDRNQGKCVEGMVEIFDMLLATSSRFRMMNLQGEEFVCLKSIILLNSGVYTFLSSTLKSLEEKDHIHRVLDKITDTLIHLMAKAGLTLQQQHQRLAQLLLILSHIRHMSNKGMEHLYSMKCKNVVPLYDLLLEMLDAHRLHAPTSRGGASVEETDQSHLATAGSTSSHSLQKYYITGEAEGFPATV
Protocol: as §1

M1 = biological target: T8, M1 (Homo sapiens, UniProt P11229); settings: antagonist radioligand
T8 construct: gene CHRM1
T8 sequence (P11229 whole entry): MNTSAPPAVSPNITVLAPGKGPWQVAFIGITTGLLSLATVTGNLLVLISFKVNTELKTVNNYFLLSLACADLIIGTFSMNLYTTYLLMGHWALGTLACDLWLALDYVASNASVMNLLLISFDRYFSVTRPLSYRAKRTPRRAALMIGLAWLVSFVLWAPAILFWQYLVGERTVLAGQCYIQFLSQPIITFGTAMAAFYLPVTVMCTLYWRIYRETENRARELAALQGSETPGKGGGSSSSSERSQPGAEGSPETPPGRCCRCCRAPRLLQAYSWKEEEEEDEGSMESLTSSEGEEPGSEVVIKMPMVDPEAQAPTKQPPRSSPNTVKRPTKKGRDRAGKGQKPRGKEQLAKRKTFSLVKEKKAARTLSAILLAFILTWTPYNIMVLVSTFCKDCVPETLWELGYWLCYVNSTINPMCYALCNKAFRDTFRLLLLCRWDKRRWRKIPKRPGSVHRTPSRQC
Protocol: as §1

5-HT1A = biological target: T9, 5-HT1A (Homo sapiens, UniProt P08908); settings: agonist radioligand
T9 construct: gene HTR1A
Protocol: as §1

H1 = biological target: T10, H1 (Homo sapiens, UniProt P35367); settings: antagonist radioligand
T10 construct: gene HRH1
Protocol: as §1

d (DOP) = biological target: T11, d (DOP) (Homo sapiens, UniProt P41143); settings: agonist radioligand
T11 construct: gene OPRD1; DOP
T11 sequence (P41143 whole entry): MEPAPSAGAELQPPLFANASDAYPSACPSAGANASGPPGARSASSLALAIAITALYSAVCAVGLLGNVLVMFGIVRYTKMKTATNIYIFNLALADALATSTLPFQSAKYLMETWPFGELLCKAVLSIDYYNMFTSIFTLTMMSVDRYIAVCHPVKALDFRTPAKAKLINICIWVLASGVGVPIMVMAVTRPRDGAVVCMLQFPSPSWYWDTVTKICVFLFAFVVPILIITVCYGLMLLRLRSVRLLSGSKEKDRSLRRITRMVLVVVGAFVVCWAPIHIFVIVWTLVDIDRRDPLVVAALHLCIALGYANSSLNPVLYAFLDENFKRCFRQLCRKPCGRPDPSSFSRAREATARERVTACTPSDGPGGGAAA
Protocol: as §1

CGRP = biological target: T12, CGRP (Homo sapiens, UniProt O60894+Q16602); settings: agonist radioligand
T12 construct: gene RAMP1
T12 sequence (O60894 whole entry): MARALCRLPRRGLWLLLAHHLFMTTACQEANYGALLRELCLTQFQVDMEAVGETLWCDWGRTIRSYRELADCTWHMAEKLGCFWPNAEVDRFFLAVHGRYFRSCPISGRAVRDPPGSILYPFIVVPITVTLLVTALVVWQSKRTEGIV
T12 sequence (Q16602 whole entry): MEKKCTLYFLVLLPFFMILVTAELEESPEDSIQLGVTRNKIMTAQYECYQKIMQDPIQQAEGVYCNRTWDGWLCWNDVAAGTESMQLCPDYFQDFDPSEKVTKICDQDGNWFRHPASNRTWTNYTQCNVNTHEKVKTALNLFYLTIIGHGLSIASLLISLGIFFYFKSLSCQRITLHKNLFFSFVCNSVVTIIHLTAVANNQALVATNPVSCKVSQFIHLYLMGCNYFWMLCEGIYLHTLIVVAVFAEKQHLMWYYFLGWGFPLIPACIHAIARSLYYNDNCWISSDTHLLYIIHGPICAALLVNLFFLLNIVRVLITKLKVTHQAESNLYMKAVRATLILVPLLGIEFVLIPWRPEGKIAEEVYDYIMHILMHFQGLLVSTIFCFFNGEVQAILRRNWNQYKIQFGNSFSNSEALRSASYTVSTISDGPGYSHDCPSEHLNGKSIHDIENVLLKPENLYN
Protocol: as §1

5-HT7 = biological target: T13, 5-HT7 (Homo sapiens, UniProt P34969); settings: agonist radioligand
T13 construct: gene HTR7
T13 sequence (P34969 whole entry): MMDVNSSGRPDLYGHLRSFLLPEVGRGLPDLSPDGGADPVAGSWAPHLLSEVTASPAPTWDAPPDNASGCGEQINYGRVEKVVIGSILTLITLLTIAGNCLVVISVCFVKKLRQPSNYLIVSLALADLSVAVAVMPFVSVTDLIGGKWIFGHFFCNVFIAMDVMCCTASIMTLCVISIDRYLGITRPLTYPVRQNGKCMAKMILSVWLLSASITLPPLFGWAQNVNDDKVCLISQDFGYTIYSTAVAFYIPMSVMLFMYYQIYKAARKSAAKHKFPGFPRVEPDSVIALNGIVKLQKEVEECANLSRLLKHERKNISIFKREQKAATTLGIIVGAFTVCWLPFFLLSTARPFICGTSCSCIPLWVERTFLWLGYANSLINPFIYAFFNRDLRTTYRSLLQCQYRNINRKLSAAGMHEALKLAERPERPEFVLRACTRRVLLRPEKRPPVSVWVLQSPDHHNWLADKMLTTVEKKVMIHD
Protocol: as §1

D1 = biological target: T14, D1 (Homo sapiens, UniProt P21728); settings: antagonist radioligand
T14 construct: gene DRD1
Protocol: as §1

B2 = biological target: T15, B2 (Homo sapiens, UniProt P30411); settings: agonist radioligand
T15 construct: gene BDKRB2
Protocol: as §1

NK1 = biological target: T16, NK1 (Homo sapiens, UniProt P25103); settings: agonist radioligand
T16 construct: gene TACR1
Protocol: as §1

NK2 = biological target: T17, NK2 (Homo sapiens, UniProt P21452); settings: agonist radioligand
T17 construct: gene TACR2
T17 sequence (P21452 whole entry): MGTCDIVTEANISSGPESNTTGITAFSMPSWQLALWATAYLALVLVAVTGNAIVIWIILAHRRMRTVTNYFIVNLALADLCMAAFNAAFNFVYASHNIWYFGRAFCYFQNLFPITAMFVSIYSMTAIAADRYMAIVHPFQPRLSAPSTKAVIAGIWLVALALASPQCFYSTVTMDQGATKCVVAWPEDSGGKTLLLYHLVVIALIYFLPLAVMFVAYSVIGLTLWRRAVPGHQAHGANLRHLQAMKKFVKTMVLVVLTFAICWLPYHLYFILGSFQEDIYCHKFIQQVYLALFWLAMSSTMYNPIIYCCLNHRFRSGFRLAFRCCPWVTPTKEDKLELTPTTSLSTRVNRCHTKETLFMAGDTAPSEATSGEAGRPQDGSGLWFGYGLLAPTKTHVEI
Protocol: as §1

5-HT2A = biological target: T18, 5-HT2A (Homo sapiens, UniProt P28223); settings: antagonist radioligand
T18 construct: gene HTR2A
Protocol: as §1

Measured: AC50

CC(C)CCN[C@@H]1CCc2cc(O)c(N3CC(=O)NS3(=O)=O)c(F)c2C1 [AC484, ABBV-CLS-484]
> 0.01 mM: all assays above
